Patent US7151191B2, “Compounds and compositions for delivering active agents” (Emisphere Technologies, Inc., priority 2000, dated 2006)

Row | melting point [°C] | Structure (SMILES)
1 | 231 to 234 | O=C(O)CCCOc1ccc(Cl)cc1NC(=O)c1ccccc1O [Compound 3]
2 | 166 to 169 | O=C(O)CCCCOc1ccc(Cl)cc1NC(=O)c1ccccc1O [Compound 2]
3 | 135 to 137 | COc1cccc(C(=O)Nc2ccc(OCCC(=O)O)cc2)c1OC [Compound 7]
4 | 122 to 124 | O=C(O)CCCCCCCOc1ccccc1NC(=O)c1ccccc1O [Compound 4]
5 | 154 to 158 | COc1ccccc1C(=O)Nc1ccc(OCCC(=O)O)cc1 [Compound 9]
6 | 147 to 149 | O=C(O)CCCCOc1ccccc1NC(=O)c1ccccc1O [Compound 5]
7 | 165 to 167 | O=C(O)CCOc1ccc(NC(=O)c2ccccc2O)cc1 [Compound 8, 3-(4-salicyloylamino)phenoxy propionic acid]
8 | 152 to 153 | O=C(O)CCCCCCCOc1ccc(Cl)cc1NC(=O)c1ccccc1O [Compound 1, 8-[(N-Salicyloyl-2-amino-4-chloro)phenoxyl]octanoic acid]
9 | 124 to 126.5 | O=C(O)COc1ccc(CCCNC(=O)c2ccccc2O)cc1 [Compound 10]
